Test results reported in patent EP3329923A1, “THE POTENTIAL OF CRBN-INDEPENDENT IMID RESENSITIZATION BY EPIGENETIC THERAPY” (University of Copenhagen, priority 2016, dated 2018).

How the values were obtained:
JJN3 [1] = experiment: Cell proliferation, XTT dye absorbance (IC50 of IMiDs); assay type: cell-based; settings: Homo sapiens, JJN-3, 72 h, XTT absorbance 3 days after treatment with IMiDs
From the text: (§1) A total of seven commercially available human myeloma cell lines (JJN3, OPM2, RPMI-8226, U266, NCI-H929, LP-1, KMS12-BM) were purchased from DSMZ (Leibniz Institute DSMZ-German Collection of Microorganisms and Cell Cultures, Braunschweig, Germany).
(§2) First, the present inventors tested the sensitivity of all HMCL to both lenalidomide and pomalidomide by generating dose-response curves and calculating the IC50 of both drugs for each cell line (given in tables below).

RPMI-8226 = experiment: as above; assay type: cell-based; settings: Homo sapiens, RPMI-8226, 72 h, XTT absorbance 3 days after treatment with IMiDs
From the text: as §1, §2

KMS12-BM [2] = experiment: as above; assay type: cell-based; settings: Homo sapiens, KMS-12-BM, 72 h, XTT absorbance 3 days after treatment with IMiDs
From the text: as §1, §2

NCI-H929 = experiment: as above; assay type: cell-based; settings: Homo sapiens, 72 h, XTT absorbance 3 days after treatment with IMiDs
From the text: as §1, §2

U266 = experiment: as above; assay type: cell-based; settings: Homo sapiens, U-266, 72 h, XTT absorbance 3 days after treatment with IMiDs
From the text: as §1, §2

OPM2 = experiment: as above; assay type: cell-based; settings: Homo sapiens, OPM-2, 72 h, XTT absorbance 3 days after treatment with IMiDs
From the text: as §1, §2

CRBN = CRBN expression by qPCR after epidrug treatment; settings: OPM2-LR and OPM2-PR, monotherapy and combination (Figure 13A)
JJN3 [3] = experiment: Apoptosis assay, epigenetic sensitization in intrinsic IMiD resistance; settings: JJN3, baseline IMiD resistance (Figure 13C)
Description: (§3) Cell apoptosis was evaluated using Annexin V and PI, with the analysis performed on a FACS-Calibur (BD Bioscience).
(§4) The present inventors then went on to examine whether the combination of epidrugs was effective in intrinsically IMiD-resistant cell lines.

KMS12-BM [4] = experiment: as above; settings: baseline IMiD resistance (Figure 13C)
Description: as §3, §4

[5] = test system: all IMiD-resistant cell lines; experiment: Resensitization to IMiDs after 48 hours epidrug pretreatment, apoptosis and cell cycle assays; assay type: cell-based, human; settings: epidrug pretreatment for 48 hours, then no treatment vs. 10 µM lenalidomide or pomalidomide; panobinostat as monotherapy or combined with 5-Azacytidine or EPZ-6438
OPM2-PR = experiment: Apoptosis assay (Annexin V and PI), resensitization to IMiDs; settings: epidrug treatment 48 hours, then 10 µM lenalidomide or 10 µM Pomalidomide for 3 days (Figure 11B)
Description: Cell proliferation (and IC50 for each cell line) was assessed by measuring 2,3-Bis-(2-Methoxy-4-Nitro-5-Sulfophenyl)-2H-Tetrazolium-5-Carboxanilide (XTT) dye absorbance 3 days after treatment with IMiDs. Cell apoptosis was evaluated using Annexin V and PI, with the analysis performed on a FACS-Calibur (BD Bioscience).

EZH2 = EZH2 over EZH1; cited from earlier work

Nc1cccc2c1C(=O)N(C1CCC(=O)NC1=O)C2=O (centres unmarked) [Pomalidomide]
IC50 (JJN3 [1]): 87.3 µM | IC50 (RPMI-8226): 98.3 µM | IC50 (KMS12-BM [2]): 15.2 µM | IC50 (NCI-H929): 0.003 µM | IC50 (U266): 60.5 µM | IC50 (OPM2): 2.01 µM

CCN(c1cc(-c2ccc(CN3CCOCC3)cc2)cc(C(=O)NCc2c(C)cc(C)[nH]c2=O)c1C)C1CCOCC1 [EPZ-6438, N-((4,6-dimethyl-2-oxo-1,2-dihydropyridin-3-yl)methyl)-5-(ethyl(tetrahydro-2H-pyran-4-yl)amino)-4-methyl-4'-(morpholinomethyl)-[1,1'-biphenyl]-3-carboxamide]
expression of CRBN (CRBN): remained low and unchanged | sensitization to lenalidomide and pomalidomide (JJN3 [3]): able to render the cells sensitive to both lenalidomide and pomalidomide | sensitization to lenalidomide and pomalidomide (KMS12-BM [4]): able to render the cells sensitive to both lenalidomide and pomalidomide | resensitization to IMiDs (IMiD sensitivity) [5]: did not restore IMiD sensitivity | resensitization to lenalidomide and pomalidomide (apoptosis) (OPM2-PR): minor resensitization effect

Nc1cccc2c1CN(C1CCC(=O)NC1=O)C2=O (centres unmarked) [Lenalidomide]
IC50 (JJN3 [1]): 136 µM | IC50 (RPMI-8226): 118 µM | IC50 (KMS12-BM [2]): 20.8 µM | IC50 (NCI-H929): 0.563 µM | IC50 (U266): 68.1 µM | IC50 (OPM2): 5.01 µM

Nc1ncn([C@@H]2O[C@H](CO)[C@@H](O)[C@H]2O)c(=O)n1 [5-Azacytidine, 4-amino-1-beta-D-ribofuranosyl-1,3,5-triazin-2(1H)-one]
expression of CRBN (CRBN): remained low and unchanged | resensitization to IMiDs (IMiD sensitivity) [5]: did not restore IMiD sensitivity

Cc1cc(C)c(CNC(=O)c2cc(-c3ccc(CN4CCOCC4)cc3)cc3c2cnn3C2CCCC2)c(=O)[nH]1 [EPZ005687]
selectivity for EZH2 compared to EZH1 (EZH2): 50 fold
